Laboratory results from ChEMBL document CHEMBL1141924 (Bioorg Med Chem Lett, 2005).

Biological target: Carbonic anhydrase V (Homo sapiens, UniProt Q9Y2D0+P35218)

## CC1(C)O[C@@H]2[C@@H](CO[C@@]3(COS(N)(=O)=O)OC(C)(C)O[C@@H]23)O1 [TOPIRAMATE]
  Ki: 25.4 nM
